25 molecules from US8232278B2 (Gilead Sciences, Inc., priority 2005, dated 2012) can be followed below.

The subject of one data set is HCV replicon. Description: Anti-HCV assay / replicon assay (EC50, luciferase read-out). In kind it is cell-based, hepatitis C virus (HCV). The conditions noted are these: for CC50/EC50: CC50/EC50 ratio (selectivity index); for EC50: human hepatoma Huh-7 cell line harbouring a HCV replicon, 3 days, luciferase luminescence, read-out: EC50. As to the method: (§1) The anti-HCV activity of the pyrido[3,2-d]pyrimidine derivatives of this invention was tested in a human hepatoma Huh-7 cell line harbouring a HCV replicon. The assay comprised the following steps:
(§2) Step 1: Compound Preparation and Serial Dilution
(§3) • 1. for water soluble pyrido[3,2-d]pyrimidine derivatives, a volume of 500 μL of solution in cell media (DMEM, 10% FBS, P/S, L-Glutamine) was prepared with a concentration being twice the concentration of the starting final serial dilution concentration. […] The rest of the plate, columns 2-12, was filled with 100 μL of cell media. The plate was then placed on a Precision 2000 Workstation to start the serial dilution. Compounds were diluted three times each step from column 1 to column 10. Column 11 was used as a blank control (no compound added). • 2. for pyrido[3,2-d]pyrimidine derivatives requiring DMSO to dissolve, serial dilution is performed in 50% DMSO in a 384-well plate. A solution containing a compound at 100-fold concentration of the starting final serial dilution concentration was prepared in 50% DMSO and added to the pre-specified wells in column 1 of a polypropylene 384-well plate. The plate was then placed on a Precision 2000 Workstation to start the serial dilution. After the serial dilution, a volume of 2 μL of the solution was transferred from the 384-well plate to a 96-well cell culture plate containing 100 μL of cell media on a Biomek FX Workstation. The DMSO concentration in the final assay condition was 0.5% after cells are added to the plate and the total volume in each well is brought to 200 μL. Step 2: to each well of the serial dilution plate prepared above, 100 μL of cell media containing 6000 suspended Huh-7 HCV replicon cells was added with a Multidrop workstation. The plates were incubated for 3 days at 37° C. with 5% CO2. Step 3: Detection: • a) for the EC50 assay, the media in a 96-well cell culture plate was aspirated with a Biotek EL405 plate-washer. A volume of 200 μL of a solution containing a 1:1 mixture of cell-lysis buffer (Promega, Luciferase Cell Culture Lysis 5× Reagent, cat. #E1531) and luciferase substrate solution (Promega, Luciferase Assay, cat. #E4550) was added to each well of the plate with Multidrop.
(§4) Results in table 7 are expressed by the following data: • the 50% effective concentration (EC50), i.e. the concentration that protects 50% of the cell monolayer from virus-induced cythopathic effect, and • the 50% cytostatic concentration (CC50), i.e. the concentration that results in 50% inhibition of cell growth. Table 7 further indicates the nature of substituents being present in positions 2, 4 and 6 of the pyrido[3,2-d]pyrimidine derivatives of the invention.
On the technique in general: Replicon systems follow genome replication, usually without infectious particles.

In the next data set the test system is Huh-7 HCV replicon cells. Description: CC50 assay in Huh-7 HCV replicon cells (CellTiter-Glo). Format: cell-based, human. As to conditions: 3 days, 50% cytostatic concentration. As to the method: as §1, §2, §3, §4

Several values for one entry are separate records, joined by “and”; a condition that tells them apart may be missing. Equal entries are not always repeated. Where two headings read alike, the source gives them in different places.

As a reminder, the EC50 is the midpoint of the concentration-response curve. One may read the CC50 as the concentration giving 50% cytotoxicity. Turning to `CCCCCOc1nc(N)nc2ccc(-c3ccccc3F)nc12` [Example 297, 2-amino-4-n-pentyloxy-6-(o-fluorophenyl)pyrido[3,2-d]-pyrimidine], the CC50/EC50 in the data set with HCV replicon was determined as 66. Besides, the EC50 in the data set on HCV replicon (Hepatitis C virus, 72 h) stood at 760 nM. Further, the CC50 in the data set on Huh-7 HCV replicon cells was 50100 nM.
On to `Nc1nc(N2CCN(C(=O)COc3ccc(Cl)cc3)CC2)c2nc(-c3cccc(Cl)c3)ccc2n1` [Example 385, 2-amino-4-[N-(4-chlorophenoxyacetyl)piperazin-1-yl]-6-(3-chlorophenyl)pyrido-[3,2-d]pyrimidine], for which, in the data set with HCV replicon, the CC50/EC50 came to 122 and the EC50 was 61 nM. For the same molecule, the CC50 with Huh-7 HCV replicon cells came out at 7400 nM.
For `Nc1nc(N2CCN(C(=O)COc3ccc(Cl)cc3)CC2)c2nc(-c3ccc(C(F)(F)F)cc3)ccc2n1` [Example 379, 2-amino-4-[N-(4-chlorophenoxyacetyl)piperazin-1-yl]-6-(4-trifluoromethylphenyl)-pyrido-[3,2-d]pyrimidine] the same measures were 287, 75 nM and 21600 nM.
Take `Nc1nc(N2CCOCC2)c2nc(-c3ccc4c(c3)OCO4)ccc2n1` [Example 180, 2-amino-4-morpholino-6-(3,4-(methylenedioxy)phenyl)pyrido[3,2-d]pyrimidine]: in the data set on HCV replicon, the CC50/EC50 was found to be 167 and the EC50 is 150 nM. Moreover, the CC50 in the data set on Huh-7 HCV replicon cells came out at 25100 nM.
As for `CCOc1nc(N)nc2ccc(-c3cccs3)nc12` [Example 467, 4-Ethoxy-6-thiophen-2-yl-pyrido[3,2-d]pyrimidin-2-ylamine], the CC50/EC50 in the data set on HCV replicon amounted to 113. Also, the EC50 with HCV replicon (Hepatitis C virus, 72 h) was 443 nM. Moreover, the CC50 in the data set on Huh-7 HCV replicon cells was 50100 nM.
Turning to `COc1ccc(-c2ccc3nc(N)nc(N4CCN(Cc5ccc6c(c5)OCO6)CC4)c3n2)cc1OC` [Example 55, 2-amino-4-(1-piperonyl-piperazin-1-yl)-6-(3,4-dimethoxyphenyl)-pyrido[3,2-d]pyrimidine], in the data set with HCV replicon, the CC50/EC50 worked out at 74 and the EC50 is 340 nM. In addition, the CC50 in the data set on Huh-7 HCV replicon cells turned out to be 25100 nM.
For `Cc1cccc(NC(=O)N2CCN(c3nc(N)nc4ccc(-c5ccccc5)nc34)CC2)c1` [Example 389, 2-amino-4-[N-(3-methyl-phenyl-carbamoyl)-piperazin-1-yl]-6-phenyl-pyrido[3,2-d]pyrimidine] the same measures were 200, 21 nM and 4200 nM.
As for `COc1ccc(-c2ccc3nc(Nc4ccc(C)cc4)nc(N4CCN(C(=O)Nc5cccc(C)c5)CC4)c3n2)cc1OC` [Example 94, 2-(p-tolylamino)-4-[(N-3-methylphenylcarbamoyl)-piperazin-1-yl]-6-(3,4-dimethoxy-phenyl)-pyrido[3,2-d]pyrimidine], in the data set on HCV replicon, the CC50/EC50 came to 339 and the EC50 stood at 74 nM. The same molecule came in with a CC50 with Huh-7 HCV replicon cells of 25100 nM.
For the molecule `COc1ccc(-c2ccc3nc(N)nc(N4CCN(C(=O)Nc5cccc(Cl)c5)CC4)c3n2)cc1OC` [Example 63, 2-amino-4(N-3-chloro-phenyl-carbamoyl-piperazin-1-yl)-6-(3,4-dimethoxyphenyl)-pyrido[3,2-d]pyrimidine], in the data set with HCV replicon, the CC50/EC50 was 106 and the EC50 came to 7 nM. Moreover, the CC50 in the data set on Huh-7 HCV replicon cells came to 700 nM.
For `Nc1nc(N2CCS(=O)(=O)CC2)c2nc(-c3ccc(F)cc3)ccc2n1` [Example 406, 2-amino-4-(thiomorpholino-1,1-dioxide)-6-(4-fluorophenyl)pyrido[3,2-d]pyrimidine] the same measures were 1931, 13 nM and 25100 nM.
Consider `Nc1nc(N2CCN(C(=O)COc3ccc(Cl)cc3)CC2)c2nc(-c3ccc(F)cc3)ccc2n1` [Example 201, 2-amino-4-[(N-4-chloro-phenoxy-acetyl)-piperazin-1-yl]-6-(4-fluorophenyl)-pyrido[3,2-d]pyrimidine], for which, in the data set with HCV replicon, the CC50/EC50 is given as 558 and the EC50 came out at 45 nM. In the data set on Huh-7 HCV replicon cells, this molecule came in with a cytotoxic concentration (CC50) of 25100 nM.
Regarding `COc1ccc(-c2ccc3nc(N)nc(N4CCN(c5ccccn5)CC4)c3n2)cc1OC` [Example 52, 2-amino-4-(2-pyridyl-piperazin-1-yl)-6-(3,4-dimethoxyphenyl)-pyrido[3,2-d]pyrimidine], in the data set on HCV replicon, the CC50/EC50 was found to be 72 and the EC50 turned out to be 42 nM. In addition, the half-maximal cytotoxic concentration (CC50) with Huh-7 HCV replicon cells was 3000 nM.
Take `Nc1nc(N2CCN(C(=O)COc3ccc(Cl)cc3)CC2)c2nc(-c3ccc(Cl)cc3)ccc2n1` [Example 384, 2-amino-4-[N-(4-chlorophenoxyacetyl)piperazin-1-yl]-6-(4-chlorophenyl)pyrido-[3,2-d]pyrimidine]: in the data set with HCV replicon, the CC50/EC50 is 231 and 148; the EC50 turned out to be 53 nM. The CC50 in the data set with Huh-7 HCV replicon cells was 12200 nM and 7900 nM.
Consider `CCOc1nc(NC(C)=O)nc2ccc(-c3ccc(F)cc3)nc12` [NHCOMe/OEt/(4-F)Ph], for which, in the data set on HCV replicon, the CC50/EC50 came out at 170 and the EC50 turned out to be 148 nM. Further, the cytotoxic concentration (CC50) with Huh-7 HCV replicon cells came to 25100 nM.
In the case of `COc1ccc(-c2ccc3nc(N)nc(N4CCN(Cc5ccccc5)CC4)c3n2)cc1OC` [Example 57, 2-amino-4-(1-benzylpiperazin-1-yl)-6-(3,4-dimethoxyphenyl)-pyrido[3,2-d]pyrimidine], in the data set on HCV replicon, the CC50/EC50 came to 546 and the EC50 is 45 nM. Besides, the CC50 in the data set on Huh-7 HCV replicon cells was found to be 24600 nM.
Turning to `COc1ccc(-c2ccc3nc(Cl)nc(N4CCN(C(=O)Nc5cccc(C)c5)CC4)c3n2)cc1OC` [Example 14], in the data set on HCV replicon, the CC50/EC50 was 167 and the EC50 came to 150 nM. For the same molecule, in the data set with Huh-7 HCV replicon cells, the CC50 came to 25100 nM.
“2-amino-4-[N-3-chloro-phenyl-carbamoyl)-piperazin-1-yl]-6-(3,4-(methylenedioxy)phenyl)pyrido[3,2-d]pyrimidine [Example 173]”: in the data set on HCV replicon, the CC50/EC50 is recorded as 143 and the EC50 was determined as 24 nM. The molecule also yielded a CC50 with Huh-7 HCV replicon cells of 3400 nM.
Regarding `COc1ccc(-c2ccc3nc(N)nc(Nc4ccc5c(c4)OCO5)c3n2)cc1OC` [Example 33, 2-amino-4-[3,4-(methylenedioxy)aniline]-6-(3,4-dimethoxyphenyl)pyrido[3,2-d]pyrimidine], in the data set with HCV replicon, the CC50/EC50 is listed as 636 and the EC50 was 8 nM. This molecule returned a CC50 in the data set on Huh-7 HCV replicon cells of 4800 nM.
As to `CS(=O)(=O)CCNc1nc(N)nc2ccc(-c3ccc(F)cc3)nc12` [Example 415, 2-amino-4-[(2-aminoethyl)methylsulfone]-6-(4-fluorophenyl)pyrido[3,2-d]pyrimidine], in the data set with HCV replicon, the CC50/EC50 is on record as 118 and the EC50 is 99 nM. The molecule further gave a CC50 in the data set with Huh-7 HCV replicon cells of 11700 nM.
Regarding “2-amino-4-(phenoxy-ethyl-piperazin-1-yl)-6-(3,4-dimethoxyphenyl)-pyrido[3,2-d]pyrimidine [Example 50]”, in the data set with HCV replicon, the CC50/EC50 stood at 310 and the EC50 was determined as 58 nM. Moreover, in the data set on Huh-7 HCV replicon cells, the CC50 came out at 18000 nM.
Regarding `CCCOc1nc(N)nc2ccc(-c3ccccc3F)nc12` [Example 282, 2-amino-4-n-propoxy-6-(o-fluorophenyl)-pyrido[3,2-d]pyrimidine], the CC50/EC50 in the data set on HCV replicon is reported as 89. In addition, the EC50 in the data set with HCV replicon (Hepatitis C virus, 72 h) turned out to be 560 nM. The same molecule yielded a CC50 with Huh-7 HCV replicon cells of 50100 nM.
Turning to `Cc1cccc(NC(=O)N2CCN(c3nc(N)nc4ccc(-c5ccc6c(c5)OCCO6)nc34)CC2)c1` [Example 192, 2-amino-4-[N-(3-methyl-phenyl-carbamoyl)-piperazin-1-yl]-6-(1,4-benzodioxane)-pyrido[3,2-d]pyrimidine], in the data set with HCV replicon, the CC50/EC50 was found to be 147 and the EC50 was 5 nM. Moreover, in the data set with Huh-7 HCV replicon cells, it took 690 nM to reach half-maximal cytotoxicity (CC50).
For “4-ethoxy-6-(4-methoxy-phenyl)-pyrido[3,2-d]pyrimidin-2-ylamine [Example 461]” the same measures were 93, 270 nM and 25100 nM.
`CC(C)Sc1nc(N)nc2ccc(-c3ccc(F)cc3)nc12` [Example 394, 2-amino-4-thioisopropyl-6-(4-fluorophenyl)pyrido(3,2-d)pyrimidine]: in the data set on HCV replicon, the CC50/EC50 came out at 268 and the EC50 was found to be 187 nM. In the data set with Huh-7 HCV replicon cells, this molecule gave a CC50 of 50100 nM.
For “2-amino-4-[(N-3-chloro-phenyl-carbamoyl)-piperazin-1-yl]-6-(3-fluoro-4-ethoxyphenyl)pyrido-[3,2-d]pyrimidine [Example 171]”, in the data set on HCV replicon, the CC50/EC50 came to 101 and the concentration for a half-maximal effect (EC50) came out at 15 nM. In the data set with Huh-7 HCV replicon cells, half-maximal cytotoxicity (CC50) was put at 1500 nM.
